Tested on: HeLa cells
Assay: YFP-Stim2 localization after thapsigargin ER Ca^2+ store depletion (confocal imaging)
Type: cell-based, human
Details: 1 uM thapsigargin
Method: FIG. 3. Stim2 translocates to ER-PM junctions following ER Ca^2+ depletion. (A-C) YFP-Stim2 was expressed (˜24 hour) in HeLa (A), HUVEC, (B), and HEK293T (C) cells and confocal images were taken before and 2 minutes after 1 uM thapsigargin addition. […] HeLa cells were transfected for two days with ORAI1 siRNA and transfected for 24 hours with YFP-Stim2. Cells used in the analysis expressed YFP at 7.5 to 15 fold above background. N=10 sites.
Confocal imaging was performed using a Zeiss spinning disk confocal. Cells were imaged in extracellar buffer as described in the Ca^2+ measurements section.
We employed the YFP tagged Stim2 construct to investigate its localization and activation mechanism. Cells with submaximal YFP-Stim2 expression were selected to minimize expression artifacts. […] We observed the same YFP-Stim2 puncta formation in HeLa, Huvec, and HEK293T cell lines (FIGS. 3A-C). We then compared Stim1 and Stim2 localization by co-transfection of CFP-Stim1 and YFP-Stim2 followed by thapsigargin-induced depletion of ER Ca^2+ stores. CFP-Stim1 and YFP-Stim2 were co-localized in the same puncta that have previously been characterized as ER-PM junction sites (FIG. 3D) (Liou et al., 2005, Wu et al., 2006). […]

C/C=C(/C)C(=O)O[C@H]1C(C)=C2[C@H]([C@@H]1OC(=O)CCCCCCC)[C@@](C)(OC(C)=O)C[C@H](OC(=O)CCC)[C@@]1(O)[C@H]2OC(=O)[C@@]1(C)O [thapsigargin]
YFP-Stim2 translocation to PM localized puncta: rapid translocation
